These results are taken from publication PMC2848536 (Journal of medicinal chemistry, 2010).

As usually defined, the IC50 is the concentration that gives 50% inhibition.

Test [1] concerns actin cytoskeleton of HeLa cells. Nature of the test: HeLa cell microfilament. In kind it is cell-based, human. Conditions: 24 h, result in words.
Test [2] deals with microfilaments. The following applies: result in words; cited from earlier work.
Test [3] deals with HCT-116 cells. The following applies: read-out: IC50 against HCT-116 cells, cytotoxicity; cited from earlier work.

“Also recorded” adds a separate entry of the source.

As to `C/C1=C\[C@H](C)C[C@H](C)OC(=O)C[C@H](c2ccc(O)cc2)NC(=O)[C@@H](Cc2c(Br)[nH]c3ccccc23)N(C)C(=O)[C@H](C)NC(=O)[C@@H](C)C1` [Compound 1, jasplakinolide], the “microfilament disruption at 80 nM” value in test [1] was “exhibited microfilament disruption”.

Turning to `C=C1C[C@H](C)C(=O)N[C@@H](C)C(=O)N(C)[C@H](Cc2c(Br)[nH]c3ccccc23)C(=O)N[C@@H](c2ccc(O)cc2)CC(=O)O[C@@H](C)C[C@@H](C)C1=O` [Compound 11, jasplakinolide B], the “microfilament disruption at 80 nM” value in test [1] is given as “without microfilament disruption; also recorded: without MF disruption; also recorded: did not exhibit microfilament-disrupting activity”. On the same count and under the same terms, the same measure for jasplakinolide F [Compound 4]: “exhibited microfilament disruption”. 18-epi-latrunculol: the “MF disruption at 5 µM” value in test [2] is recorded as “without MF disruption”. In addition, the IC50 in test [3] was 2100 nM.
